Assay: skin irritability (stated in words, no method described)
Settings: the vinyl ether itself

C=COCC1(COC=C)CC=CCC1 [4,4-bis[(ethenyloxy)methyl]cyclohexene]
skin irritability: low
